The values that follow come from patent US8471027B2, “Adamantyl compounds” (Hoffmann-La Roche Inc., priority 2011, dated 2013).

One assay addresses JNK1 (Homo sapiens, UniProt P45983). As to the kind of experiment: In vitro JNK1 Assay (TR-FRET, phosphorylation of GST-c-Jun). The format is biochemical. The following applies: 0.2 nM JNK1, 26.7 nM GST-c-Jun, 2 μM ATP. The procedure:
Phosphorylation of GST-c-Jun protein (amino acid residues 1-79) was measured as JNK1 activity. […] The reaction buffer contained 50 mM HEPES, pH 7.0, 10 mM MgCl2, 1 mM DTT, 0.1 mM Na3 VO4 and 0.2 mg/mL BSA. After 30 min. incubation at room temperature, the reaction was terminated by adding buffer containing 8 mM EDTA and a polyclonal anti-phospho-c-Jun antibody (Cell Signaling #9261L), followed by an additional incubation of 30 min. at room temperature. […] Time-resolved Fluorescence Resonance Energy Transfer (TR-FRET) signals were measured 1 hr. later on the EnVision reader (Perkin Elmer). Compound potency was assessed at 10 serially diluted concentrations. Percentage of inhibition at each concentration was determined to generate an IC50 value for each compound.

The subject of assay [1] is phospho(Ser63)-c-jun in HK-2 cells. The assay is described as follows: Cell-based assay for JNK inhibitors: in-cell ELISA of TNFα-stimulated phospho(Ser63)-c-jun in HK-2 cells. Conditions: Homo sapiens, 10 ng/mL TNFα, 60 min preincubation with compound. The procedure: Cell-Based Assay for JNK Inhibitors
The cell-based assay employed the in-cell ELISA method to determine the ability of compounds to prevent the generation of phospho(Ser63)-c-jun in HK-2 cells (human proximal tubule cells) in response to stimulation with tumor necrosis factor α (TNFα). In brief, for quantification of phospho(Ser63)-c-jun, the cells (in 96-well format) were fixed and permeablized then incubated sequentially with a rabbit anti-phospho-c-jun First Antibody specific for the presence of the phospho-Ser63 epitope and a donkey anti-rabbit IgG Second Antibody linked to horseradish peroxidase (HRP) for colorimetric quantitation of binding. For determination of non-specific binding of the First Antibody, Blank wells were preincubated with a mouse anti-phospho(Ser63)-c-jun Blocking Antibody that prevented specific binding of the First Antibody to the phospho-Ser63 epitope, but which was not recognized by the donkey anti-rabbit IgG Second Antibody. […] Blank wells received no TNFα stimulation or compound. Additional Control wells received TNFα stimulation, but no compound. The signal obtained in this case was considered the value for 0% inhibition (Control value).
Stock cultures of HK-2 cells (ATCC, Manassas, Va.) were grown under a 5% CO2/[…] atmosphere at 37 degrees C. in Keratinocyte-SFM medium (KSFM, Invitrogen, Grand Island, N.Y.) containing 5 μg/L epidermal growth factor and 5 mg/L bovine pituitary extract (both supplied with the medium), additionally supplemented with 10% (v/v) fetal calf serum (FCS; Invitrogen, Grand Island, N.Y.) and 1% (v/v) antibiotic-antimycotic (ABAM: Sigma, St. Louis, Mo.). For assays, cells were seeded in collagen coated 96-well polystyrene plates (BD Biosciences, Franklin Lakes, N.J.) at a density of 40,000 cells/well and cultured for 24 h in the same medium (100 μL/well) followed by a further 16-24 h in 100 μL of similar medium, but without FCS. […] Cells were incubated for a further 30 minutes and then the medium was aspirated and the wells washed with 100 μL/well PBS followed by the addition of 100 μL 3.7% (v/v) Formaldehyde (Fisher Scientific, Fair Lawn, N.J.) in PBS. Plates were then allowed to stand at room temperature for 20 minutes before being washed with 200 μL/well of PBS. (Further steps were performed immediately or the plates were stored at 4 degrees C. and the assay completed the next day.) To each well was added 100 μL 1% (v/v) TritonX-100 (Sigma, St. Louis, Mo.) in PBS followed by 20 minutes standing at room temperature, washing with 200 μL/well PBS, the addition of 100 μL/well of Quenching buffer (1% (v/v) hydrogen peroxide (Sigma, St. Louis, Mo.) and 0.1% (w/v) sodium azide (Fisher Scientific, Fair Lawn, N.J.)) in PBS and a further 20 minutes at room temperature. Plates were then washed twice with 200 μL/well of 0.1% (v/v) Tween-20 (Teknova, Hollister, Calif.) in PBS before addition of 200 μL/well of 2% BSA/0.10% Tween-20 in PBS and a further 1 hour at room temperature. At this time, buffer was removed from Blank wells and replaced with 90 μL/well of mouse anti-phospho-c-jun-Ser63 (BD Bioscience, 558036) diluted 1:4000 in PBS containing 1% BSA/0.1% Tween-20 (Antibody Dilution Buffer). All other wells are replaced with 90 μL/well of rabbit anti-phospho-c-jun-Ser63 (Cell Signaling, 9261) diluted 1:250 in Antibody Dilution Buffer. After a further one hour, rabbit anti-phospho-c-jun-Ser63 is added directly to the solution in the Blank wells resulting in 1:250 dilution of this antibody. Plates were then placed on a slowly rotating platform at 4 degrees C. overnight. Wells were then washed thrice with 200 μL/well PBS/0.1% Tween-20. After addition of the third wash, the plates were placed on a slowly rotating platform for 15 minutes at room temperature. […]

Assay [2] relates to phospho-(Ser63)-c-jun. The assay is described as follows: Mouse In Vivo TNFα-Induced Kidney and Liver Phospho-c-Jun Assay. Details: species or system C57/BL6 mice. The following applies: Example B, procedures identical to Example A. As to the method:
Male C57/BL6 mice were obtained from Jackson Labs and acclimatized for at least one week prior to use at age 10-12 weeks. Mice (n=8 per group) were administered Compound I-1 (Group 3; 50 mg/kg from a 12.5 mg/mL preparation in 20% (v/v)DMSO/80% (v/v) PEG400) or vehicle alone (Groups 1 and 2) via oral gavage. One hour later, mice received an intravenous challenge of 5 μg/kg recombinant mouse TNFα (Sigma) in saline (Groups 2 and 3) or saline alone (Group 1). After a further 1 h, the animals were killed by carbon dioxide inhalation. Kidneys and livers were removed, rapidly frozen in liquid nitrogen and stored at −80 degrees until analysis.
For analysis of livers, portions of frozen tissue (100-200 mg) were homogenized in lysis buffer (Cell Signaling Technology) supplemented with 1% (v/v) of each of Phosphatase Inhibitor Cocktail-1 (Sigma), Phosphatase Inhibitor Cocktail-2 (Sigma), Protease Inhibitor Cocktail (Sigma) and 1 mM AEBSF (Sigma). The phospho-(Ser63)-c-jun content was quantified using an ELISA kit (Cell Signaling Technology).
Experimental procedures were identical to Example A, but using 7-chloro-3-(4-methanesulfonyl-benzyl)-4-oxo-1-phenyl-1,4-dihydro-quinoline-2-carboxylic acid methyl ester.

The subject of assay [3] is phospho-(Ser63)-c-jun. As to the kind of experiment: Rat In Vivo TNFα-Induced Kidney Phospho-c-Jun Assay. The arrangement: species or system Sprague-Dawley rats. Conditions: Example D, 2 doses of 75 mg/kg oral (0 and 12 h), TNFα 2.5 ug/kg i.v. at 23 h, killed 1 h later, normalized to Group 2 as 100%, mean (standard deviation). As to the method: Male Sprague-Dawley rats were obtained from Charles River and acclimatized for at least one week prior to use at age 6-8 weeks. Rats (n=8 per group) were administered Compound I-1 (Group 3; 75 mg/kg from a Microprecipitated Bulk Powder formulation resuspended in Klucel vehicle at 18.75 mg/mL) or vehicle alone (Groups 1 and 2) via oral gavage. Seven hours later, rats received an intravenous challenge of 2.5 μg/kg recombinant rat TNFα (Sigma) in saline (Groups 2 and 3) or saline alone (Group 1). After a further 1 h, the animals were killed by carbon dioxide inhalation. Kidneys were removed, rapidly frozen in liquid nitrogen and stored at −80 degrees until analysis.
Sample analysis was performed as described for mouse kidneys in Example a.
Male Sprague-Dawley rats were obtained from Charles River and acclimatized for at least one week prior to use at age 6-8 weeks. Rats (n=8 per group) were administered Compound I-1 (Groups 3 and 4; 75 mg/kg from a Microprecipitated Bulk Powder formulation resuspended in Klucel vehicle at 18.75 mg/mL) or vehicle alone (Groups 1 and 2) via oral gavage. Group 3 received an additional identical dose 12 hours later. Group 4 received an additional identical dose at 8 and 16 hours after the first dose. […]

JNK1, sequence (P45983 whole entry, species assumed, the tested form may be a part): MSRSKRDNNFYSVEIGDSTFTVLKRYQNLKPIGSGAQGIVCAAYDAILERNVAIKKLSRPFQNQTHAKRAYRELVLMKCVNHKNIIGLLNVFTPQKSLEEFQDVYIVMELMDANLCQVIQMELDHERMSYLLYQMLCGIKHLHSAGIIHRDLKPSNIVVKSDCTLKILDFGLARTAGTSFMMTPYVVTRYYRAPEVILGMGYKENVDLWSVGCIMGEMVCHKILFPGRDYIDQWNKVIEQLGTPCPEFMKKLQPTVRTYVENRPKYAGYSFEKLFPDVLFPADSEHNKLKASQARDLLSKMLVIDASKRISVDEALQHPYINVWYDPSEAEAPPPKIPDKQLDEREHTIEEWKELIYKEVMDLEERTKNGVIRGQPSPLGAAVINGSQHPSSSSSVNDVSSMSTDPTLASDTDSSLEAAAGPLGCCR

The compound `COC(=O)c1c(Cc2ccc(S(C)(=O)=O)cc2)c(=O)c2ccc(Cl)cc2n1-c1ccccc1` [7-chloro-3-(4-methanesulfonyl-benzyl)-4-oxo-1-phenyl-1,4-dihydro-quinoline-2-carboxylic acid methyl ester, reference compound] had an IC50 at JNK1 of 32 nM. The EC50 in assay [1] amounted to 15000 nM. Moreover, in the assay on phospho-(Ser63)-c-jun [2], the “effect on the levels of phospho-(Ser63)-c-jun in the kidneys” value was “No significant effect” and the “effect on the levels of phospho-(Ser63)-c-jun in the livers” value was “No significant effect”.

As for `COC(=O)c1c(Cc2ccc(C(=O)N[C@@H]3[C@@H]4C[C@@H]5C[C@H]3C[C@@](O)(C5)C4)cc2)c(=O)c2cccnc2n1-c1ccccc1` [Compound I-1, rel-3-[4-((1S,2S,3R,5S,7S)-5-Hydroxy-adamantan-2-ylcarbamoyl)-benzyl]-4-oxo-1-phenyl-1,4-dihydro-[1,8]naphthyridine-2-carboxylic acid methyl ester], 12 nM corresponded to half-maximal inhibition against JNK1 (IC50). In addition, the EC50 in assay [1] stood at 4100 nM. For the same compound, the Kidney phospho-c-jun in the assay with phospho-(Ser63)-c-jun [3] is on record as 59.6 (30.0) %.
